{
  "source": "patent US11970458B1",
  "about": "“4,5-bis(4-bromophenyl)-1-hexyl-2-(4-nitrophenyl)-1H-imidazole as an antimicrobial compound” (KING FAISAL UNIVERSITY, priority 2023, dated 2024)",
  "key": {"Candida albicans": {"test_system": "Candida albicans", "test": "antimicrobial screening by agar dilution", "type": "cell-based", "conditions": "after 10, 20, 40 and 60 minutes at all dilutions 1:100, 1:200, 1:400, 1:800", "description": "(§1) The antimicrobial properties of the 4,5-bis(4-bromophenyl)-1-hexyl-2-(4-nitrophenyl)-1H-imidazole was studied by the method of agar dilution. Test solutions of each compound was prepared in concentration of 1% using dimethylformamide as a solvent then they were diluted in physiological solution to obtain the final experimental dilutions 1:100, 1:200, 1:400, 1:800. The effect of these substances were compared with furacillin in a controlled study. The testing microbes used were gram positive bacteria Staphylococcus aureus, gram negative bacteria Pseudomonas aeruginosa and Escherichia coli and Candida albicans fungi were taken. The experiments used for this survey were meat-pentonlu agar (EPA) for cultivation of bacteria and Saburo environment for fungi. Each experiment used 1 ml of test solution on each plate 500 min. Add 2 drops of emulsified with microbes feel. All experimental samples were taken from the agar after 10, 20, 40, 60 minutes in the environment on the basis of Patrk planted. Bacteria were cultivated at a temperature of 37° C. for 1 day and the mushroom was kept in a thermostat for […] at a temperature of 28° C. Then results were checked."}, "Escherichia coli": {"test_system": "Escherichia coli", "test": "antimicrobial screening by agar dilution", "type": "cell-based", "conditions": "after 10, 20, 40 and 60 minutes at all dilutions 1:100, 1:200, 1:400, 1:800", "description": "as §1"}, "Pseudomonas aeruginosa": {"test_system": "Pseudomonas aeruginosa", "test": "antimicrobial screening by agar dilution", "type": "cell-based", "conditions": "after 10, 20, 40 and 60 minutes at all dilutions 1:100, 1:200, 1:400, 1:800", "description": "as §1"}, "Staphylococcus aureus": {"test_system": "Staphylococcus aureus", "test": "antimicrobial screening by agar dilution", "type": "cell-based", "conditions": "after 10, 20, 40 and 60 minutes at all dilutions 1:100, 1:200, 1:400, 1:800", "description": "as §1"}},
  "data": [
    {"smiles": "CCCCCCn1c(-c2ccc([N+](=O)[O-])cc2)nc(-c2ccc(Br)cc2)c1-c1ccc(Br)cc1", "note": "[4,5-bis(4-bromophenyl)-1-hexyl-2-(4-nitrophenyl)-1H-imidazole]", "values": [
      {"measurement": "inhibition activity", "setting": "Candida albicans", "value": "highest inhibition activity"},
      {"measurement": "inhibition activity", "setting": "Escherichia coli", "value": "highest inhibition activity"},
      {"measurement": "inhibition activity", "setting": "Pseudomonas aeruginosa", "value": "highest inhibition activity"},
      {"measurement": "inhibition activity", "setting": "Staphylococcus aureus", "value": "highest inhibition activity"},
      {"measurement": "melting point", "value": "160 to 161", "unit": "°C"}
    ]}
  ]
}
